Laboratory results: paper PMC12888861, “Antibacterial activity of enmetazobactam against Acinetobacter spp.: a molecular dissection of mechanism of action and resistance determinants” (Antimicrobial Agents and Chemotherapy, 2025)

Tested on: carbapenem-resistant A. baumannii (CRAB) isolates (n = 67)
Test: MIC, broth microdilution (EUCAST), carbapenem-resistant A. baumannii isolates
Assay type: cell-based, Acinetobacter baumannii
Conditions: ETZ fixed 8 mg/L in combinations; for MIC: Acinetobacter baumannii; for MIC distribution 0.12: cumulative share of CRAB isolates (n = 67) at MIC 0.12 mg/L; for MIC distribution 0.25: cumulative share of CRAB isolates (n = 67) at MIC 0.25 mg/L; for MIC distribution 0.5: cumulative share of CRAB isolates (n = 67) at MIC 0.5 mg/L; for MIC distribution 1: cumulative share of CRAB isolates (n = 67) at MIC 1 mg/L; for MIC distribution 2: cumulative share of CRAB isolates (n = 67) at MIC 2 mg/L; for MIC distribution 4: cumulative share of CRAB isolates (n = 67) at MIC 4 mg/L; for MIC distribution 8: cumulative share of CRAB isolates (n = 67) at MIC 8 mg/L; for MIC distribution 16: cumulative share of CRAB isolates (n = 67) at MIC 16 mg/L; for MIC distribution 32: cumulative share of CRAB isolates (n = 67) at MIC 32 mg/L; for MIC distribution 64: cumulative share of CRAB isolates (n = 67) at MIC 64 mg/L
Text: The bacterial strains used in this study comprised 208 clinical isolates from the Spanish National Acinetobacter spp. 2020 Multicenter Collection, which was previously characterized in detail by our research group, including whole-genome sequencing, phylogenetics studies, clonal dynamics, and resistance mechanisms ([2], [29]). Additionally, a collection of A. baumannii ATCC 17978 transformants coding the blaOXA-23, blaOXA-24/40, blaOXA-51, blaOXA-58, blaOXA-143, and blaOXA-201 genes, previously constructed and described by our group ([30]), was used to determine the activity of enmetazobactam against strains carrying the main CHDLs of A. baumannii.
The antimicrobial susceptibility of the 208 Acinetobacter spp. isolates was assessed using the broth microdilution method, as described in the European Committee on Antimicrobial Susceptibility Testing (EUCAST) v.15 guidelines (http://www.eucast.org/clinical_breakpoints). […] MICs for enmetazobactam alone were assessed as well. […] Subsequently, MIC testing was also conducted with a collection of A. baumannii ATCC 17978 transformants expressing clinically relevant OXA-like carbapenemase genes.
The A. baumannii ATCC 19606 strain was used as the reference strain in all susceptibility experiments, in duplicate assays. Antibiotics were purchased from Sigma-Aldrich, except enmetazobactam and durlobactam, which were obtained from Advanz Pharma and MedChemExpress, respectively.

[1] = isolate Ab56, ST 1, ADC-75, OXA-69, OXA-23
[2] = isolate Ab83, ST 25, ADC-5, OXA-64, OXA-23
[3] = isolate Ab109, ST 1, ADC-75, OXA-69, OXA-23
[4] = isolate Ab133, ST 2, ADC-30, OXA-66, OXA-58, TEM-12
[5] = isolate Ab134, ST 2, ADC-30, OXA-66, OXA-58, TEM-12
[6] = isolate Ab137, ST 85, ADC-2, OXA-94, OXA-23
[7] = isolate Ab138, ST 745, ADC-30, OXA-66, OXA-58
[8] = isolate Ab140, ST 85, ADC-2, OXA-94, OXA-23
[9] = isolate Ab141, ST 745, ADC-30, OXA-66, OXA-58
[10] = isolate Ab144, ST 745, ADC-30, OXA-66, OXA-58
[11] = isolate Ab169, ST 2, ADC-30, OXA-66, OXA-23
[12] = isolate Ab171, ST 2, ADC-30, OXA-66, OXA-23
[13] = isolate Ab173, ST 2, ISAba1-ADC-30, OXA-66, OXA-23
[14] = isolate Ab174, ST 2, ADC-30, OXA-66, OXA-23
[15] = isolate Ab179, ST 2, ADC-30, OXA-66, OXA-23
[16] = isolate Ab180, ST 2, ADC-30, OXA-66, OXA-24/40
[17] = isolate Ab181, ST 2, ADC-30, OXA-66, OXA-23
[18] = isolate Ab182, ST 2, ADC-30, OXA-66, OXA-23
[19] = isolate Ab183, ST 2, ADC-30, OXA-66, OXA-23
[20] = isolate Ab184, ST 2, ADC-30, OXA-66, OXA-23
[21] = isolate Ab186, ST 2, ADC-30, OXA-66, OXA-23
[22] = isolate Ab191, ST 2, ADC-30, OXA-66, OXA-23
[23] = isolate Ab192, ST 2, ADC-30, OXA-66, OXA-23
[24] = isolate Ab194, ST 2, ADC-30, OXA-66, OXA-23
[25] = isolate Ab199, ST 2, ADC-30, OXA-66, OXA-23
[26] = isolate Ab201, ST 2, ADC-30, OXA-66, OXA-23
[27] = isolate Ab204, ST 2, ADC-30, OXA-66, OXA-23

SMILES	MIC [1]	MIC [2]	MIC [3]	MIC [4]	MIC [5]	MIC [6]	MIC [7]	MIC [8]	MIC [9]	MIC [10]	MIC [11]	MIC [12]	MIC [13]	MIC [14]	MIC [15]	MIC [16]	MIC [17]	MIC [18]	MIC [19]	MIC [20]	also measured
CO/N=C(\C(=O)N[C@@H]1C(=O)N2C(C(=O)[O-])=C(C[N+]3(C)CCCC3)CS[C@H]12)c1csc(N)n1 [cefepime]	32 µg/mL	64 µg/mL	64 µg/mL	32 µg/mL	16 µg/mL	64 µg/mL	32 µg/mL	32 µg/mL	32 µg/mL	32 µg/mL	32 µg/mL	32 µg/mL	≥ 128 µg/mL	32 µg/mL	64 µg/mL	16 µg/mL	32 µg/mL	16 µg/mL	32 µg/mL	≥ 128 µg/mL	MIC [21]: 32 µg/mL; MIC [22]: 32 µg/mL; MIC [23]: 32 µg/mL; MIC [24]: 32 µg/mL; MIC [25]: 32 µg/mL; MIC [26]: 64 µg/mL; MIC [27]: 16 µg/mL; MIC distribution 0.12: 0; MIC distribution 0.25: 0; MIC distribution 0.5: 0; MIC distribution 1: 0; MIC distribution 2: 0; MIC distribution 4: 1.5; MIC distribution 8: 3.0; MIC distribution 16: 22.4; MIC distribution 32: 70.1; MIC distribution 64: 97.0
C[C@@H](O)[C@H]1C(=O)N2C(C(=O)O)=C(SCCN=CN)C[C@H]12 [imipenem]	16 µg/mL	32 µg/mL	16 µg/mL	16 µg/mL	16 µg/mL	32 µg/mL	32 µg/mL	32 µg/mL	16 µg/mL	32 µg/mL	32 µg/mL	16 µg/mL	32 µg/mL	64 µg/mL	32 µg/mL	64 µg/mL	32 µg/mL	16 µg/mL	16 µg/mL	32 µg/mL	MIC [21]: 32 µg/mL; MIC [22]: 64 µg/mL; MIC [23]: 64 µg/mL; MIC [24]: 32 µg/mL; MIC [25]: 32 µg/mL; MIC [26]: 32 µg/mL; MIC [27]: 16 µg/mL; MIC distribution 0.12: 0; MIC distribution 0.25: 0; MIC distribution 0.5: 0; MIC distribution 1: 0; MIC distribution 2: 0; MIC distribution 4: 0; MIC distribution 8: 9.0; MIC distribution 16: 34.3; MIC distribution 32: 79.1; MIC distribution 64: 100; MIC distribution ≤0.06 (cumulative share of CRAB isolates (n = 67) at MIC ≤0.06 mg/L): 0
